Nine molecules from PubChem BioAssay (NCI) can be followed below.

Holding throughout (experiment): NCI-60 cell line screen, 48 h
Assay [1] has as its system 786-0 renal.
Assay [2] deals with MOLT-4 leukemia.
The subject of assay [3] is NCI-H522 lung.
Assay [4] relates to BT-549 breast.
Assay [5] has as its system SR leukemia.
The subject of assay [6] is SF-539 CNS.
Assay [7] relates to NCI/ADR-RES ovarian.
Assay [8] relates to RXF 393 renal.

Several values for one entry are separate records, joined by “and”; a condition that tells them apart may be missing. Equal values may be shown once.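 Test compounds were applied to cells in 96-well plates for 48 hours at 5 doses. At the GI50, growth is halved. TGI: total growth inhibition.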

For the molecule `FC(F)(F)c1ccc(-c2nn3ncccc3c2-c2ccnc(Nc3ccc4c(c3)OCCO4)n2)cc1`, the GI50 in assay [1] was 17.3 µM; in assay [2], 6.11 µM; in assay [3], 8.79 µM; in assay [4], 17.3 µM; in assay [5], greater than 25 µM; in assay [6], greater than 19.7 µM. For the same molecule, the GI50 in assay [7] is 9.6 µM; in assay [8] it was 4.4 µM. Also, the TGI in assay [1] was greater than 25 µM; in assay [2], greater than 23.3 µM; in assay [3], greater than 25 µM; in assay [4], greater than 25 µM; in assay [5], greater than 25 µM; in assay [6], greater than 25 µM. In addition, the TGI is greater than 25 µM in assay [7] and greater than 17 µM in assay [8].

For `CCn1cc(/C=C2\Oc3cc(OCC#N)ccc3C2=O)c2cc(OC)ccc21`, the GI50 in assay [1] is 0.167 µM; in assay [2] it was 0.187 µM; in assay [3], 2.46 µM; in assay [4], 0.229 µM; in assay [5], 0.102 µM; in assay [6], 0.113 µM. Also, the GI50 in assay [7] was 0.161 µM; in assay [8], 0.152 µM. In addition, the TGI in assay [1] was greater than 40.9 µM; in assay [2] it was greater than 100 µM; in assay [3] it was 28.5 µM; in assay [4], 20.3 µM; in assay [5] it was greater than 100 µM; in assay [6] it was 0.818 µM. For the same molecule, the TGI in assay [7] is greater than 32.9 µM; in assay [8], 0.614 µM.

For the molecule `Cn1c(=O)n(C)c2cc(CNCCNc3ccnc4cc(Cl)ccc34)ccc21`, the GI50 in assay [1] is 23.1 µM; in assay [2], 21.1 µM; in assay [3], 30.2 µM; in assay [4] it was greater than 100 µM; in assay [5], 16.3 µM; in assay [6] it was 14.7 µM. Moreover, the GI50 in assay [7] is greater than 100 µM; in assay [8] it was 12.6 µM. Besides, the TGI was 71.8 µM in assay [1]; greater than 100 µM in assay [2]; 93.3 µM in assay [3]; greater than 100 µM in assay [4]; 48.2 µM in assay [5]; 29.4 µM in assay [6]. The results for the TGI in assay [7] and in assay [8] were greater than 100 µM and 31.2 µM, respectively.

For the molecule `CC(C)(C)[Si](C)(C)OC1[C@@H](CNC(N)=O)O[C@@H](n2cnc3c(NC(=O)Nc4ccccc4)ncnc32)[C@H]1O[Si](C)(C)C(C)(C)C` (stereo not given in full), the GI50 in assay [1] is 2.22 µM; in assay [2], 1.06 µM; in assay [3], 2.36 µM; in assay [4], 2.47 µM; in assay [5], 0.977 µM; in assay [6] it was 6.73 µM. For the same molecule, the figures for the GI50 in assay [7] and in assay [8] were 2.93 µM and 1.95 µM, respectively. The TGI in assay [1] was determined as 8.17 µM; in assay [2], 2.24 µM; in assay [3], 8.25 µM; in assay [4], 9.2 µM; in assay [5], 1.99 µM; in assay [6] it was 13.6 µM. Moreover, the TGI in assay [7] was 9.81 µM; in assay [8], 7.02 µM.

On to `NC(=O)c1cccnc1`, for which the GI50 in assay [1] was greater than 100 µM; in assay [2], greater than 100 µM; in assay [3], greater than 100 µM; in assay [4], greater than 100 µM; in assay [5], 59.8 µM; in assay [6] it was greater than 100 µM. For the same molecule, the GI50 in assay [7] and in assay [8] was greater than 100 µM in each case. Moreover, the TGI in assay [1], in assay [2], in assay [3], in assay [4], in assay [5] and in assay [6] was greater than 100 µM throughout. Also, the TGI in assay [7] and in assay [8] was greater than 100 µM each time.

Take `COc1ccc(C2=NC(=O)NC2c2ccc(OC)cc2)cc1` (stereo not given): the GI50 in assay [1] is 26.9 µM; in assay [2], 1.2 µM; in assay [3], 5.02 µM; in assay [4] it was 3.89 µM; in assay [5], 1.63 µM; in assay [6], 12.6 µM. For the same molecule, the GI50 in assay [7] was 4.38 µM; in assay [8], 12 µM. Also, the TGI in assay [1] was greater than 100 µM; in assay [2] it was 96.7 µM; in assay [3], 60.9 µM; in assay [4], 29.5 µM; in assay [5] it was 6.91 µM; in assay [6], 54.8 µM. Further, the TGI in assay [7] amounted to 58.5 µM; in assay [8], 51.5 µM.

Take `Cc1cc(CCl)c(C)cc1CCl`: the GI50 in assay [1] was 2.19 µM; in assay [2], 0.573 µM; in assay [3], 1.7 µM; in assay [4], 4.34 µM; in assay [5] it was 0.114 µM; in assay [6], 1.02 µM. Also, the GI50 is 2.07 µM in assay [7] and 2.93 µM in assay [8]. Besides, the TGI was 8.39 µM in assay [2]; 3.57 µM in assay [3]; 18.9 µM in assay [4]; 8.83 µM in assay [5]; 4.26 µM in assay [6]; 7.77 µM in assay [7]. Besides, the TGI in assay [8] amounted to 8.72 µM.

As to `CCCCCCNCCCNc1c2cc(OC)ccc2nc2cccc([N+](=O)[O-])c12`, the GI50 was 0.205 µM in assay [1]; 0.0514 µM in assay [2]; 0.0174 µM in assay [3]; 1.04 µM in assay [4]; 0.121 µM in assay [5]; 0.239 µM in assay [6]. The GI50 in assay [7] is 0.555 µM. Moreover, the TGI in assay [1] was 0.368 µM and 0.724 µM; in assay [3], 0.104 µM and 0.0516 µM; in assay [4] it was 2.3 µM and 2.27 µM; in assay [6], 1.18 µM and 0.616 µM; in assay [7] it was 2.41 µM and 3.65 µM; in assay [8], 0.111 µM.

As to `CN(Cc1ccc(F)cc1)c1ccc(CO)c(Cl)c1`, the GI50 in assay [1] is 10.5 µM; in assay [2], 21.8 µM; in assay [3] it was 26.5 µM; in assay [4] it was 12.3 µM; in assay [5], 20.3 µM; in assay [6], 40.7 µM. In addition, the GI50 in assay [7] was 17.7 µM; in assay [8], 9.12 µM. Also, the TGI in assay [1] is 30.4 µM; in assay [2] it was 69.3 µM; in assay [3] it was 97.3 µM; in assay [4] it was 39.9 µM; in assay [5], 73.8 µM; in assay [6], greater than 100 µM. Also, the TGI in assay [7] is greater than 64.3 µM; in assay [8], greater than 59 µM.
